Assay [1] relates to Mycobacterium tuberculosis. As to the kind of experiment: Antitubercular activity against dormant Mycobacterium bovis BCG after at 30 ug 12 days by nitrate reductase assay. It counts as functional, variant bovis BCG.
The test system of assay [2] is Mycobacterium tuberculosis. In words: Antitubercular activity against dormant Mycobacterium bovis BCG after at 10 ug 12 days by nitrate reductase assay. The assay is classed as functional, variant bovis BCG.
The subject of assay [3] is Mycobacterium tuberculosis. As to the kind of experiment: Antitubercular activity against dormant Mycobacterium bovis BCG after at 3 ug 12 days by nitrate reductase assay. The assay is classed as functional, variant bovis BCG.
Assay [4] concerns Mycobacterium tuberculosis. In words: Antitubercular activity against dormant Mycobacterium bovis BCG after 12 days by nitrate reductase assay. The assay is classed as functional, organism-based. The settings on record: variant bovis BCG, 288 h.

≈ marks a conversion by molar mass, not a printed value. Some results are limits rather than exact numbers.

For `Cc1cnc(C(=O)NN2C(=O)CSC2c2ccc(O)cc2)cn1` (stereo not drawn), the “inhibition (INH)” value in assay [1] is reported as 77.54%; in assay [2], -17.5884%; in assay [3], -7.23%.
Consider `Nc1nccnc1C(=O)NN1C(=O)CSC1c1ccc(Cl)cc1` (stereo not drawn), for which the “inhibition (INH)” value was 76.11% in assay [1], 46.72% in assay [2] and 22.09% in assay [3].
On to `CN(C)c1ccc(C2SCC(=O)N2NC(=O)c2nccnc2N)cc1` (stereo not drawn), for which the “inhibition (INH)” value in assay [1] is reported as 32.8615%; in assay [2], 44.99%; in assay [3], 26.9022%.
In general, IC50 refers to the concentration needed to halve the response being measured. A low value points to inhibition by little substance. Usually MIC stands for the least concentration at which growth counts as inhibited. With `O=C(NN1C(=O)CS[C@@H]1c1ccc(Cl)cc1)c1cnccn1`, the results for the “inhibition (INH)” value in assay [1], in assay [2] and in assay [3] were 96.24%, 91.85% and 43.58%, respectively. The same compound returned a half-inhibitory concentration (IC50) in assay [4] of 3.26 µg/mL (≈ 9.74 µM). Besides, the lowest concentration to inhibit growth in assay [4] (MIC) was 8.48 µg/mL (≈ 25.3 µM).
With `Nc1nccnc1C(=O)NN1C(=O)CS[C@H]1c1ccc([N+](=O)[O-])cc1`, the “inhibition (INH)” value was 96.67% in assay [1], 34.04% in assay [2] and 45.89% in assay [3].
As for `CCOc1cc([C@@H]2SCC(=O)N2NC(=O)c2cnc(C)cn2)ccc1O`, the “inhibition (INH)” value in assay [1] was 97.31%; in assay [2], 34.91%; in assay [3], -10.8481%. For the same compound, the IC50 in assay [4] came to 9.46 µg/mL (≈ 25.3 µM). For the same compound, inhibition of growth in assay [4] (MIC) required 15.9 µg/mL (≈ 42.5 µM).
Regarding `Nc1nccnc1C(=O)NN1C(=O)CSC1c1ccc(F)cc1` (stereo not drawn), the “inhibition (INH)” value in assay [1] is recorded as 63.72%; in assay [2] it was 26.63%; in assay [3], 12.4938%.
For the compound `Cc1cnc(C(=O)NN2C(=O)CSC2c2ccccc2)cn1` (stereo not drawn), the “inhibition (INH)” value is on record as 96.6% in assay [1], -6.383% in assay [2] and 34.12% in assay [3].
On the same counts, the results for `Nc1nccnc1C(=O)NN1C(=O)CSC1c1ccc(O)cc1` (stereo not drawn) are 82.99%, 45.87% and 14.76%.
In the case of `COc1cc([C@@H]2SCC(=O)N2NC(=O)c2cnc(C)cn2)ccc1O`, the figures for the “inhibition (INH)” value in assay [1], in assay [2] and in assay [3] were 98.03%, 81.1965% and 3.203%, respectively. This compound returned an IC50 in assay [4] of 5.1 µg/mL (≈ 14.2 µM). In addition, in assay [4], 12.2 µg/mL (≈ 34 µM) was the least that counted as inhibitory (MIC).
Taken in the same sequence, the figures for `O=C(NN1C(=O)CS[C@@H]1c1ccc([N+](=O)[O-])cc1)c1cnccn1` were 98.6%, 92.72%, 24.09%, 4.93 µg/mL (≈ 14.3 µM) and 9.38 µg/mL (≈ 27.2 µM).
As for `O=C(NN1C(=O)CSC1c1ccc(O)cc1)c1cnccn1` (stereo not drawn), the “inhibition (INH)” value is on record as 54.42% in assay [1], 16.47% in assay [2] and 9.989% in assay [3].
For `Cc1cnc(C(=O)NN2C(=O)CS[C@@H]2c2ccc([N+](=O)[O-])cc2)cn1`, the results for the “inhibition (INH)” value in assay [1], in assay [2] and in assay [3] were 97.76%, 56.74% and -13.1407%, respectively. Further, in assay [4], 23.4 µg/mL (≈ 65.3 µM) corresponded to half-maximal inhibition (IC50). The minimum inhibitory concentration (MIC) in assay [4] worked out at 28.8 µg/mL (≈ 80.1 µM).
On to `NNC(=O)c1ccncc1` [ISONIAZID], for which, in assay [4], the minimum inhibitory concentration (MIC) was 0.045 µg/mL (≈ 0.328 µM).
For the compound `Cc1cnc(C(=O)NN2C(=O)CS[C@H]2c2ccc(N(C)C)cc2)cn1`, the “inhibition (INH)” value is given as 92.16% in assay [1], 75.69% in assay [2] and 30.06% in assay [3]. This compound displayed an IC50 in assay [4] of 21.8 µg/mL (≈ 61 µM). Besides, the MIC in assay [4] was determined as 29.4 µg/mL (≈ 82.3 µM).
On to `CCOc1cc([C@H]2SCC(=O)N2NC(=O)c2nccnc2N)ccc1O`, for which the figures for the “inhibition (INH)” value in assay [1], in assay [2] and in assay [3] were 97.5903%, 23.79% and 30.79%, respectively. Moreover, in assay [4], the concentration for half-maximal inhibition (IC50) is 23.4 µg/mL (≈ 62.4 µM). Further, the minimal inhibitory concentration (MIC) in assay [4] was determined as 29.4 µg/mL (≈ 78.4 µM).
Take `COc1ccc(C2SCC(=O)N2NC(=O)c2cnc(C)cn2)cc1OC` (stereo not drawn): the entries for the “inhibition (INH)” value in assay [1], in assay [2] and in assay [3] were 96.436%, 14.41% and -15.2185%, respectively.
For the compound `COc1ccc([C@H]2SCC(=O)N2NC(=O)c2nccnc2N)cc1OC`, the “inhibition (INH)” value was 94.4% in assay [1], 25.35% in assay [2] and 3.112% in assay [3]. Also, in assay [4], half-maximal inhibition (IC50) required 23.4 µg/mL (≈ 62.5 µM). Further, the MIC in assay [4] turned out to be 29.2 µg/mL (≈ 77.9 µM).
Turning to `Nc1nccnc1C(=O)NN1C(=O)CSC1c1ccc(Cl)cc1Cl` (stereo not drawn), the “inhibition (INH)” value in assay [1] was determined as 56.5348%; in assay [2], 27.48%; in assay [3] it was 22.55%.
On to `NC(=O)c1cnccn1` [PYRAZINAMIDE], for which the MIC in assay [4] is greater than 100 µg/mL.
Consider `Nc1nccnc1C(=O)NN1C(=O)CSC1c1ccccc1` (stereo not drawn), for which the “inhibition (INH)” value is listed as 97.97% in assay [1], 30.74% in assay [2] and 11.98% in assay [3]. In assay [4], this compound came in with an IC50 of 12.9 µg/mL (≈ 40.9 µM). In assay [4], this compound had an MIC of 24.4 µg/mL (≈ 77.4 µM).
Turning to `COc1ccc(C2SCC(=O)N2NC(=O)c2cnc(C)cn2)cc1` (stereo not drawn), the figures for the “inhibition (INH)” value in assay [1], in assay [2] and in assay [3] were 88.13%, 66.73% and -16.0935%, respectively.
With `Cc1cnc(C(=O)NN2C(=O)CSC2c2ccc(Cl)cc2)cn1` (stereo not drawn), the “inhibition (INH)” value in assay [1] was 61.87%; in assay [2], 48.01%; in assay [3], 44.18%.
As to `Cc1cnc(C(=O)NN2C(=O)CS[C@@H]2c2cccc([N+](=O)[O-])c2)cn1`, the “inhibition (INH)” value in assay [1] was found to be 96.43%; in assay [2] it was 88.47%; in assay [3], 10.69%. It took 9.89 µg/mL (≈ 27.5 µM) to reach half-maximal inhibition in assay [4] (IC50). In addition, the MIC in assay [4] worked out at 18.5 µg/mL (≈ 51.5 µM).
In assay [4], `CO[C@H]1/C=C/O[C@@]2(C)Oc3c(C)c(O)c4c(O)c(c(/C=N/N5CCN(C)CC5)c(O)c4c3C2=O)NC(=O)/C(C)=C\C=C\[C@H](C)[C@H](O)[C@@H](C)[C@@H](O)[C@@H](C)[C@H](OC(C)=O)[C@@H]1C` [RIFAMPIN] came in with an IC50 of 0.004 µg/mL (≈ 0.00486 µM) and a minimal inhibitory concentration (MIC) of 0.04 µg/mL (≈ 0.0486 µM).
With `Nc1nccnc1C(=O)NN1C(=O)CSC1c1cccc([N+](=O)[O-])c1` (stereo not drawn), the results for the “inhibition (INH)” value in assay [1], in assay [2] and in assay [3] were 64.92%, 38.85% and 47.21%, respectively.
